Laboratory results reported in patent US10864188B2, “Anti-microbial composition” (SEPTEOS, priority 2010, dated 2020).

Assays:
[1] = tested on: Staphylococcus And Enterococcus; assay: MIC of pure components in Mueller Hinton gelose; assay type: cell-based; set-up: MIC 50 / MIC 90: unit not given beside the values; conditions: Staphylococcus And Enterococcus n = 14; for MIC Range: in µg/mL
[2] = tested on: Other Gram - rods; assay: MIC of pure components in Mueller Hinton gelose; assay type: cell-based; set-up: unit not given beside the values; conditions: Other Gram - rods n = 15
[3] = tested on: Enterobacteriaceae; assay: MIC of pure components in Mueller Hinton gelose; assay type: cell-based; set-up: unit not given beside the values; conditions: Enterobacteriaceae n = 13
[4] = tested on: MRSA; conditions: cited from earlier work

Compound | MIC Range [1] | MIC 50 [2] | MIC 90 [2] | MIC Range [2] | further results
CC(=O)OCC=Cc1ccccc1 [Cinnamyl acetate, cinnamyl acetate] | 5000-10000 | >10000 | >10000 | – | –
O=C/C=C/c1ccccc1 [Cinnamaldehyde, trans-cinnamaldehyde] | 150-300 | 600 | 1250 | – | MIC Range ([3]; in µg/mL): 150-600; MIC Range ([2]; in µg/mL): 150-1250; bibliographic kinetic data on the main compound [4]: 1.7 h
O=C(OCc1ccccc1)c1ccccc1 [Benzyl benzoate, benzyl benzoate] | – | – | – | >10000 | –
C=CC(C)(O)CCC=C(C)C (stereo not shown) [Linalool, linalool] | 2500-10000 | >10000 | >10000 | – | –
CC12CCC(CC1)C(C)(C)O2 [Cineole, cineole] | – | – | – | >10000 | –
C=C1CC/C=C(\C)CC[C@@H]2[C@@H]1CC2(C)C [Caryophyllene, beta-caryophyllene] | – | >10000 | >10000 | >10000 | MIC 50 [1]: >10000; MIC 90 [1]: >10000; MIC 50 [3]: >10000; MIC 90 [3]: >10000; MIC Range [3]: >10000
